In ChEMBL document CHEMBL5113378, “Role of basic aminoalkyl chains in the lead optimization of Indoloquinoline alkaloids” (Eur J Med Chem, 2022):
Values after ≈ are worked out from the molar mass of the structure shown.

Legend:
P388 = assay: Antiproliferative activity against mouse P388 cells assessed as cell growth inhibition by measuring [3H]TdR uptake incubated for 3 days; assay type: functional, cell-based
Jurkat = assay: Antiproliferative activity against human Jurkat cells assessed as cell growth inhibition incubated for 4 days by sulphorhodamine assay; assay type: functional, cell-based; conditions: 96 h
[1] = Antiproliferative activity against […] LLTC cells assessed as cell growth inhibition incubated for 4 days by sulphorhodamine assay; assay type: functional, cell-based; conditions: LLTC cell line, 96 h
Plasmodium falciparum [2] = assay: Antimalarial activity against Plasmodium falciparum INDO assessed as parasite growth inhibition incubated for 48 hrs by SYBR green dye based fluorescence assay; assay type: functional, organism-based
Plasmodium falciparum [3] = assay: Antimalarial activity against Plasmodium falciparum Dd2 assessed as parasite growth inhibition incubated for 48 hrs by SYBR green dye based fluorescence assay; assay type: functional, organism-based; conditions: Dd2, 48 h
Plasmodium berghei [4] = assay: Antimalarial activity against Plasmodium berghei ANKA infected in BALB/c mouse assessed as parasite growth inhibition at 50 mg/kg, po administered for 4 consecutive days measured for 7 to 13 days by geimsa dye based microscopy relative to control; assay type: functional; set-up: scale not given: the % may be the effect or the level left; conditions: time 7-13 day
[5] = Selectivity index, ratio of CC50 for human Huh-7 cells to IC50 for Plasmodium falciparum 3D7; assay type: toxicity; conditions: read-out: Ratio CC50/IC50
Hemozoin [6] = assay: Inhibition of detergent-mediated beta-hematin formation incubated for 6 hrs by multiwell plate reader analysis
Plasmodium falciparum [7] = assay: Antimalarial activity against Plasmodium falciparum 3D7 assessed as parasite growth inhibition incubated for 48 hrs by SYBR green dye based fluorescence assay; assay type: functional, organism-based; conditions: 3D7, 48 h
[8] = Selectivity index, ratio of IC50 for rat L6 cells to IC50 for Plasmodium falciparum NF54; assay type: toxicity; conditions: read-out: Ratio IC50
[9] = biological target: Telomerase reverse transcriptase (Homo sapiens, UniProt O14746); assay: Inhibition of telomerase derived from human K562 cell extract incubated for 30 mins by TRAP assay; assay type: cell-free
SK-HEP1 = assay: Antiproliferative activity against human SK-HEP1 cells assessed as cell growth inhibition; assay type: functional, cell-based
HeLa = assay: Antiproliferative activity against human HeLa cells assessed as cell growth inhibition; assay type: functional, cell-based
DU-145 = assay: Antiproliferative activity against human DU-145 cells assessed as cell growth inhibition; assay type: functional
A549 = assay: Antiproliferative activity against human A549 cells assessed as cell growth inhibition; assay type: functional, cell-based
MCF7 = assay: Antiproliferative activity against human MCF7 cells assessed as cell growth inhibition; assay type: functional, cell-based
Trypanosoma brucei = assay: Antitrypanosomal activity against Trypanosoma brucei assessed as parasite growth inhibition; assay type: functional, organism-based
Plasmodium falciparum [10] = assay: Antimalarial activity against Plasmodium falciparum NF54 assessed as parasite growth inhibition; assay type: functional, organism-based
HCT-116 = assay: Antiproliferative activity against human HCT-116 cells assessed as cell growth inhibition; assay type: functional, cell-based
Plasmodium falciparum [11] = assay: Antimalarial activity against chloroquine/pyrimethamine resistant Plasmodium falciparum K1 assessed as parasite growth inhibition by measuring [3H]-hypoxanthine incubated for 24 hrs; assay type: functional, organism-based
[12] = Cytotoxicity against rat L6 cells assessed as cell growth inhibition; assay type: toxicity, cell-based
Hemozoin [13] = assay: Inhibition of beta-hematin formation
[14] = biological target: DNA topoisomerase 2-beta (Homo sapiens) (UniProt Q02880); assay: Inhibition of human topoisomerase-2-beta
[15] = Selectivity index, ratio of IC50 for human MRC5 to IC50 for Plasmodium falciparum Ghana; assay type: toxicity; conditions: MRC5 cells, read-out: Ratio IC50
[16] = Selectivity index, ratio of IC50 for rat L6 cells to IC50 for Plasmodium falciparum K1; assay type: toxicity; conditions: read-out: Ratio IC50
DNA = assay: Binding affinity to DNA (unknown origin) assessed as DNA intercalation by measuring amount of methyl green by spectrophotometry; assay type: nucleic-acid assay, Homo sapiens
Plasmodium falciparum [17] = assay: Antimalarial activity against chloroquine/mefloquine resistant Plasmodium falciparum clinical isolates assessed as parasite growth inhibition incubated for 24 hrs by microtechnique method; assay type: functional, organism-based
Plasmodium falciparum [18] = assay: Antimalarial activity against erythrocytic Plasmodium falciparum NF54 assessed as parasite growth inhibition incubated for 48 hrs by [3H]-hypoxanthine incorporation assay; assay type: functional, organism-based
Plasmodium berghei [19] = assay: Antimalarial activity against erythrocytic Plasmodium berghei ANKA infected in NMRI mouse assessed as reduction in parasitemia at 40 mg/kg, ip administered for 4 consecutive days measured after 24 hrs post last dose by FACS analysis relative to control; assay type: functional; set-up: scale not given: the % may be the effect or the level left
[20] = Resistance index, ratio of IC50 for erythrocytic Plasmodium falciparum K1 to IC50 for erythrocytic Plasmodium falciparum NF54
Hemozoin [21] = assay: Inhibition of detergent-mediated beta-hematin formation incubated for 5 to 6 hrs by absorbance based assay
Plasmodium falciparum [22] = assay: Antimalarial activity against erythrocytic chloroquine/pyrimethamine resistant Plasmodium falciparum K1 assessed as parasite growth inhibition incubated for 48 hrs by [3H]-hypoxanthine incorporation assay; assay type: functional, organism-based
[23] = Cytotoxicity against rat L6 cells assessed as cell growth inhibition incubated for 70 hrs by alamar blue staining based microscopy; assay type: toxicity
[24] = Selectivity index, ratio of IC50 for rat L6 cells to IC50 for erythrocytic Plasmodium falciparum K1; assay type: toxicity; conditions: read-out: Ratio IC50
[25] = Selectivity index, ratio of IC50 for rat L6 cells to IC50 for erythrocytic Plasmodium falciparum NF54; assay type: toxicity; conditions: read-out: Ratio IC50
Plasmodium berghei [26] = assay: Antimalarial activity against Plasmodium berghei NK65 infected in Webster Swiss mouse assessed as parasite growth inhibition at 50 mg/kg/day, po for 5 days by geimsa dye based microscopy relative to control; assay type: functional; set-up: scale not given: the % may be the effect or the level left; conditions: time 5 day
K562 = assay: Antiproliferative activity against human K562 cells assessed as cell growth inhibition; assay type: functional
RPMI-8226 = assay: Antiproliferative activity against human RPMI-8226 cells assessed as cell growth inhibition; assay type: functional
MOLT-4 = assay: Antiproliferative activity against human MOLT-4 cells assessed as cell growth inhibition; assay type: functional

Sequence of Telomerase reverse transcriptase (O14746 whole entry): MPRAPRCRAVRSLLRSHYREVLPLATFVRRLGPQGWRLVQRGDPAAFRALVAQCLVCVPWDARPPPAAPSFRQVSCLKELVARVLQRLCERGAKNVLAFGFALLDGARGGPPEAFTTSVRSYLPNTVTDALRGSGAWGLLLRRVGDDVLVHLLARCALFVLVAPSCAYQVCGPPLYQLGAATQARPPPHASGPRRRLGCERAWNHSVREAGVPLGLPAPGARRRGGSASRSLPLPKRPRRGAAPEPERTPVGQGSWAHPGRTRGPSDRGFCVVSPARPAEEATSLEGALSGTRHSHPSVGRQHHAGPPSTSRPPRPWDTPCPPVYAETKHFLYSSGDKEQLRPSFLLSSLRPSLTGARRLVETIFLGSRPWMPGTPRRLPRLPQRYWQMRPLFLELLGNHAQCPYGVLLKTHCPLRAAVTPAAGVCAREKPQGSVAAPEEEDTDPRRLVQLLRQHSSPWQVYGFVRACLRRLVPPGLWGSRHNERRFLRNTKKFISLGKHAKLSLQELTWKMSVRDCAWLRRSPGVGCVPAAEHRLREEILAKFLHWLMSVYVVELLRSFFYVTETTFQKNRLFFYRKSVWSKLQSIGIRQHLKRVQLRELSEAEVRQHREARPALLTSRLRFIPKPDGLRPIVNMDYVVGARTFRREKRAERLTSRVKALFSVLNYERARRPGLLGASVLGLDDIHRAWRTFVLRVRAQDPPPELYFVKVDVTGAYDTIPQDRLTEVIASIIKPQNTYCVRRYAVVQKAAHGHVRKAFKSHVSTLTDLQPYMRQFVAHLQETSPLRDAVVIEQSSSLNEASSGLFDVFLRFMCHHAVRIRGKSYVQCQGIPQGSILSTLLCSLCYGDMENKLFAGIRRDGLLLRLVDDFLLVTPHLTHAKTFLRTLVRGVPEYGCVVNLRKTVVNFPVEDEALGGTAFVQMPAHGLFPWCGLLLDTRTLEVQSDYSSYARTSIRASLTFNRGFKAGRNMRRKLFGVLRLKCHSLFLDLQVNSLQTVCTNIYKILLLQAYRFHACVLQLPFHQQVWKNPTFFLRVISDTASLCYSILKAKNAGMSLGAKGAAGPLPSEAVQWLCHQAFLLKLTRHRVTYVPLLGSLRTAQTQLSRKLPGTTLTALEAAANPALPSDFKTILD
Sequence of DNA topoisomerase 2-beta (Homo sapiens) (Q02880 whole entry): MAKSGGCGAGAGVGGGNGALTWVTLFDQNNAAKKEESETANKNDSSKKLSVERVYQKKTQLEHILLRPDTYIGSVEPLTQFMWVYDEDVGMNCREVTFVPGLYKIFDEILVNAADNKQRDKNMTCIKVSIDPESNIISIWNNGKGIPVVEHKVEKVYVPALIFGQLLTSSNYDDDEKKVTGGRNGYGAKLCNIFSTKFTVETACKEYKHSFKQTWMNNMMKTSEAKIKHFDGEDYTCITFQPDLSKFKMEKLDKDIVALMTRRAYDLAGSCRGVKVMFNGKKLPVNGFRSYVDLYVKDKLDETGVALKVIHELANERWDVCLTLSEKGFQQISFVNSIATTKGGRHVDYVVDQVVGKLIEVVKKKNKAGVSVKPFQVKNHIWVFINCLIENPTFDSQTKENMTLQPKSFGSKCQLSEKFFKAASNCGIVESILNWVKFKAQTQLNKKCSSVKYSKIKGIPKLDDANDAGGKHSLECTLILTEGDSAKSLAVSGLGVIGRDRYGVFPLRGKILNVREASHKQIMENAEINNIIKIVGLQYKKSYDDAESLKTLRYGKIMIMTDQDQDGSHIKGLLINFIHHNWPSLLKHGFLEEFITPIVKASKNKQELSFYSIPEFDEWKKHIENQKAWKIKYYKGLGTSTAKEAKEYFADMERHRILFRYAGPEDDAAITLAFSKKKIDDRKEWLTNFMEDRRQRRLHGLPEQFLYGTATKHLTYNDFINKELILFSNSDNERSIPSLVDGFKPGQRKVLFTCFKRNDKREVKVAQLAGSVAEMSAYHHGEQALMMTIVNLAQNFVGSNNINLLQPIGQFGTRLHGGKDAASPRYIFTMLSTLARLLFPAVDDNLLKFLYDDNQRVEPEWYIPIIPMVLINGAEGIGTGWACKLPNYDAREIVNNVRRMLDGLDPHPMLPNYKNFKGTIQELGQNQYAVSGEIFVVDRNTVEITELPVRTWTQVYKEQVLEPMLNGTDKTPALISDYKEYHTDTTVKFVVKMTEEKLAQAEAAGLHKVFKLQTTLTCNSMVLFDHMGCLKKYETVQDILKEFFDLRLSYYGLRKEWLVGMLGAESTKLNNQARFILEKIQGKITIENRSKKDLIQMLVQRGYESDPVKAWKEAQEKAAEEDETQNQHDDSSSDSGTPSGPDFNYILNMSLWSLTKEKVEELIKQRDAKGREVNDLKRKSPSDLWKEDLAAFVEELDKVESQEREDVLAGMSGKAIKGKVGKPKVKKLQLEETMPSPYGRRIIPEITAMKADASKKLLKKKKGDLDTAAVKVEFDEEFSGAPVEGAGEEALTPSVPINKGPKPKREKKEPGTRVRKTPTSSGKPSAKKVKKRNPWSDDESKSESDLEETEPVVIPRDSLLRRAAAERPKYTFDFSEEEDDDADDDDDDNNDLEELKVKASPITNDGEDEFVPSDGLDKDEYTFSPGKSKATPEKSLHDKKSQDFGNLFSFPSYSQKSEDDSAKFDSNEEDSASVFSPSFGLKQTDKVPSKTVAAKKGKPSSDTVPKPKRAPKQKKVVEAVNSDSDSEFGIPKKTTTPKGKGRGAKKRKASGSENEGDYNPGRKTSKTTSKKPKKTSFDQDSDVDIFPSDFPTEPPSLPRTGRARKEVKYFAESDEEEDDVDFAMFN

## Cc1cccc2c1c1nc3c(C(=O)NCCN(C)C)cccc3cc1n2C
P388
  IC50: 20 nM
Jurkat
  IC50: 55 nM
[1]
  IC50: 18 nM

## O=C(NCCN1CCCCC1)c1c2cc(Br)ccc2nc2c1[nH]c1ccccc12
Plasmodium falciparum [2]
  IC50: 5000 nM
Plasmodium falciparum [3]
  IC50: 6300 nM
Plasmodium berghei [4]
  Activity: 27%
[5]
  selectivity ratio: 46.9
Hemozoin [6]
  IC50: 840000 nM
Plasmodium falciparum [7]
  IC50: 1300 nM

## Cn1c2nc3ccccc3c-2c(NCCCN)c2ccccc21
[8]
  selectivity ratio: 3.5

## CN(C)CCNc1c2ccccc2nc2c1[nH]c1ccccc12
[9]
  IC50: 1120 nM

## c1ccc2c(c1)nc(NCCCNCCCNc1nc3ccccc3c3[nH]c4ccccc4c13)c1c3ccccc3[nH]c21
SK-HEP1
  IC50: 90 nM

## Cn1c2ccccc2c2c(C(=O)NC3CCCCC3)c3cc(Cl)ccc3nc21
HeLa
  GI50: 10300 nM
DU-145
  GI50: 20700 nM
A549
  GI50: 7200 nM
MCF7
  GI50: 9700 nM

## Cn1c2nc3ccccc3c-2c(NCCCN2C(=O)c3ccccc3SC2c2ccc(Cl)cc2)c2ccccc21 (centres undefined)
Trypanosoma brucei
  IC50: 868 nM
[8]
  selectivity ratio: 361
Plasmodium falciparum [10]
  IC50: 2.6 nM

## O=C(NCCNc1c2ccccc2nc2c1[nH]c1ccccc12)c1ccccc1
HCT-116
  IC50: 800 nM

## OCCCNc1c2ccccc2nc2c1[nH]c1ccccc12
[9]
  IC50: 1550 nM

## COc1cc2c(cc1CN1CCC(N3CCCCC3)CC1)[nH]c1c3ccc(Cl)cc3ncc21
Plasmodium falciparum [11]
  IC50: 50 nM

## Cn1c2nc3ccccc3c-2c(NCC(C)(C)CNC(=S)Nc2ccccc2)c2cc(Cl)ccc21
[12]
  IC50: 3270 nM
[8]
  selectivity ratio: 164
Hemozoin [13]
  IC50: 34100 nM
Plasmodium falciparum [10]
  IC50: 19 nM

## CNCCCNc1c2ccccc2nc2c1[nH]c1ccccc12
HCT-116
  IC50: 300 nM

## CCCCNc1c2ccccc2[n+](C)c2c1[nH]c1ccccc12
[14]
  MIC: 0.5 µM
A549
  IC50: 470 nM
MCF7
  IC50: 5900 nM

## OCCNc1c2ccccc2nc2c1[nH]c1ccccc12
[9]
  IC50: 2350 nM

## NCCCNc1c2ccccc2nc2c1[nH]c1ccccc12
[8]
  selectivity ratio: 16
Hemozoin [13]
  IC50: 16800 nM

## Cn1c2nc3ccccc3c-2cc2ccccc21 [NEOCRYPTOLEPINE]
[15]
  selectivity ratio: 0.4
[16]
  selectivity ratio: 1.9
[8]
  selectivity ratio: 2
DNA
  IC50: 93000 nM
Hemozoin [13]
  IC50: 5970 nM

## COc1cc2c(cc1CN(C)CCCN(C)C)[nH]c1c3ccc(Cl)cc3ncc21
Plasmodium falciparum [17]
  IC50: 0.192 nM

## COC(=O)c1ccc2nc3n(C)c4ccccc4c(NCCCN)c-3c2c1
[16]
  selectivity ratio: 7.2
Hemozoin [13]
  IC50: 48900 nM

## Cn1c2nc3ccccc3c-2c(NCC(C)(C)CNC(=O)Nc2ccccc2)c2cc(Cl)ccc21
[12]
  IC50: 1180 nM
Hemozoin [13]
  IC50: 10100 nM
Plasmodium falciparum [10]
  IC50: 19 nM

## C[C@H]1[C@H](OC(=O)CCC(=O)NCCCNc2c3ccccc3[n+](C)c3[nH]c4ccccc4c23)O[C@@H]2O[C@@]3(C)CC[C@H]4[C@H](C)CC[C@@H]1[C@@]24OO3
Plasmodium falciparum [18]
  IC50: 0.45 nM
Plasmodium berghei [19]
  Activity: 89.6%
[20]
  Ratio IC50: 0.93
Hemozoin [21]
  IC50: 222000 nM
Plasmodium falciparum [22]
  IC50: 0.42 nM
[23]
  IC50 at 70 h: 1530 nM
[24]
  selectivity ratio: 3640
[25]
  selectivity ratio: 3400

## C[n+]1c2ccccc2cc2[n-]c3ccccc3c21 [CRYPTOLEPINE]
[14]
  MIC: 0.25 µM (≈ 0.0581 µg/mL)
A549
  IC50: 1050 nM
MCF7
  IC50: 630 nM
Plasmodium berghei [26]
  Activity: 43%

## Cn1c2nc3ccccc3c-2c(Nc2ccccc2)c2ccccc21
K562
  GI50: 1840 nM
RPMI-8226
  GI50: 1080 nM
MOLT-4
  GI50: 320 nM
